Experimental data reported in publication doi:10.1101/2022.01.16.476523v1, “Novel MBLs inhibitors screened from FDA-approved drug library restore the susceptibility of carbapenems to NDM-1-harbouring bacteria” (biorxiv, 2022).
Values after ≈ are worked out from the molar mass of the structure shown.

Columns and labels:
Assay in all cases: microbe, parasite or virus in culture
Set-up in all cases: CLSI broth microdilution MIC in LB, lowest concentration with no visible growth
E. coli ZJ487 (NDM-1) = tested on: T1, E. coli ZJ487 (NDM-1); settings: Escherichia coli; antibiotic alone; read-out: MIC (μg/mL) Alone
T1 construct: ZJ487 (NDM-1)
Protocol: (§1) MIC values were determined according to the broth microdilution guidelines of the Clinical and Laboratory Standards Institute (CLSI). After the tested strains were diluted with LB to a final concentration of 5×10^5 CFUs/mL, various concentrations of meropenem (0-256 μg/mL) and increasing concentrations of inhibitors (0-64 μg/mL) were added to the sterile 96-well plate, and further incubated for 18-24 h at 37 °C. The lowest concentration with no visible growth was considered as the MIC value. The synergistic effect of antibiotics and inhibitors was assessed by determining the fractional inhibitory concentration (FIC) index values according to the formula: FICI = (MIC of inhibitors in combination/MIC of inhibitors) + (MIC of antibiotics in combination/MIC of antibiotics).

E. coli ATCC 25922 = tested on: T2, E. coli ATCC 25922; settings: Escherichia coli, ATCC25922; antibiotic alone; read-out: MIC (μg/mL) Alone
T2 construct: ATCC 25922
Protocol: (§2) MIC values were determined according to the broth microdilution guidelines of the Clinical and Laboratory Standards Institute (CLSI). After the tested strains were diluted with LB to a final concentration of 5×10^5 CFUs/mL, various concentrations of meropenem (0-256 μg/mL) and increasing concentrations of inhibitors (0-64 μg/mL) were added to the sterile 96-well plate, and further incubated for 18-24 h at 37 °C. The lowest concentration with no visible growth was considered as the MIC value.

E. coli E1 (NDM-1) = tested on: T3, E. coli E1 (NDM-1); settings: Escherichia coli; antibiotic alone; read-out: MIC (μg/mL) Alone
T3 construct: E1 (NDM-1)
Protocol: as §2

[1] = tested on: T4, K. pneumoniae QD-KP2 (NDM-1); settings: Klebsiella pneumoniae; antibiotic alone; read-out: MIC (μg/mL) Alone
T4 construct: QD-KP2 (NDM-1)
Protocol: as §2

E. cloacae 20710 (VIM-1) = tested on: T5, E. cloacae 20710 (VIM-1); settings: Enterobacter cloacae; antibiotic alone; read-out: MIC (μg/mL) Alone
T5 construct: 20710 (VIM-1)
Protocol: as §1

E. coli E4 (NDM-5) = tested on: T6, E. coli E4 (NDM-5); settings: Escherichia coli; antibiotic alone; read-out: MIC (μg/mL) Alone
T6 construct: E4 (NDM-5)
Protocol: as §1

E. coli ZC-YN7 (NDM-9) = tested on: T7, E. coli ZC-YN7 (NDM-9); settings: Escherichia coli; antibiotic alone; read-out: MIC (μg/mL) Alone
T7 construct: ZC-YN7 (NDM-9)
Protocol: as §1

E. coli 2Z49 (NDM-5) = tested on: T8, E. coli 2Z49 (NDM-5); settings: Escherichia coli; antibiotic alone; read-out: MIC (μg/mL) Alone
T8 construct: 2Z49 (NDM-5)
Protocol: as §2

E. coli D3 (NDM-1) = tested on: T9, E. coli D3 (NDM-1); settings: Escherichia coli; antibiotic alone; read-out: MIC (μg/mL) Alone
T9 construct: D3 (NDM-1)
Protocol: as §1

E. coli ZC-YN3 (NDM-1) = tested on: T10, E. coli ZC-YN3 (NDM-1); settings: Escherichia coli; antibiotic alone; read-out: MIC (μg/mL) Alone
T10 construct: ZC-YN3 (NDM-1)
Protocol: as §1

E. cloacae 20712 (VIM-1) = tested on: T11, E. cloacae 20712 (VIM-1); settings: Enterobacter cloacae; antibiotic alone; read-out: MIC (μg/mL) Alone
T11 construct: 20712 (VIM-1)
Protocol: as §1

[2] = tested on: T12, K. pneumoniae QD-KP1 (NDM-1); settings: Klebsiella pneumoniae; antibiotic alone; read-out: MIC (μg/mL) Alone
T12 construct: QD-KP1 (NDM-1)
Protocol: as §2

[3] = tested on: T13, K. pneumoniae QD-KP3 (NDM-1); settings: Klebsiella pneumoniae; antibiotic alone; read-out: MIC (μg/mL) Alone
T13 construct: QD-KP3 (NDM-1)
Protocol: as §1

[4] = tested on: T14, E. coli BL21 (pET28a-SP-NDM-1); settings: Escherichia coli, read-out: MIC (μg/mL) Alone
T14 construct: BL21 (pET28a-SP-NDM-1)
Protocol: as §1

E. coli 2Z69 (NDM-5) = tested on: T15, E. coli 2Z69 (NDM-5); settings: Escherichia coli; antibiotic alone; read-out: MIC (μg/mL) Alone
T15 construct: 2Z69 (NDM-5)
Protocol: as §1

E. coli E2 (NDM-9) = tested on: T16, E. coli E2 (NDM-9); settings: Escherichia coli; antibiotic alone; read-out: MIC (μg/mL) Alone
T16 construct: E2 (NDM-9)
Protocol: as §1

CC1(C)S[C@@H]2[C@H](NC(=O)[C@H](N)c3ccc(O)cc3)C(=O)N2[C@H]1C(=O)O [Amoxicillin]
MIC (E. coli ZJ487 (NDM-1)): 512 µg/mL (≈ 1400 µM)

O=C(N[C@H](CO)[C@H](O)c1ccc([N+](=O)[O-])cc1)C(Cl)Cl [Chloramphenicol]
MIC (E. coli ZJ487 (NDM-1)): 8 µg/mL (≈ 24.8 µM)

CNC(C)[C@@H]1CC[C@@H](N)[C@@H](O[C@H]2[C@H](O)[C@@H](O[C@H]3OC[C@](C)(O)[C@H](NC)[C@H]3O)[C@H](N)C[C@@H]2N)O1 (stereo partly drawn) [Gentamicin]
MIC (E. coli ZJ487 (NDM-1)): 341 ± 121 µg/mL (≈ 715 µM)

C[C@@H](O)[C@H]1C(=O)N2C(C(=O)O)=C(SCCNC=N)C[C@H]12 [Imipenem]
MIC (E. coli ZJ487 (NDM-1)): 13.3 ± 3.77 µg/mL (≈ 44.5 µM)

C[C@@H](O)[C@H]1C(=O)N2C(C(=O)O)=C(S[C@@H]3CN[C@H](C(=O)N(C)C)C3)[C@H](C)[C@H]12 [Meropenem]
MIC (E. coli ATCC 25922): 0.03 µg/mL (≈ 0.0782 µM)
MIC (E. coli E1 (NDM-1)): 13.3 ± 3.77 µg/mL (≈ 34.8 µM)
MIC [1]: 107 ± 30.2 µg/mL (≈ 278 µM)
MIC (E. cloacae 20710 (VIM-1)): 32 µg/mL (≈ 83.4 µM)
MIC (E. coli E4 (NDM-5)): 53.3 ± 15.1 µg/mL (≈ 139 µM)
MIC (E. coli ZC-YN7 (NDM-9)): 13.3 ± 3.77 µg/mL (≈ 34.8 µM)
MIC (E. coli 2Z49 (NDM-5)): 32 µg/mL (≈ 83.4 µM)
MIC (E. coli D3 (NDM-1)): 13.3 ± 3.77 µg/mL (≈ 34.8 µM)
MIC (E. coli ZC-YN3 (NDM-1)): 21.3 ± 7.54 µg/mL (≈ 55.6 µM)
MIC (E. cloacae 20712 (VIM-1)): 32 µg/mL (≈ 83.4 µM)
MIC [2]: 64 µg/mL (≈ 167 µM)
MIC [3]: 128 µg/mL (≈ 334 µM)
MIC [4]: 128 µg/mL (≈ 334 µM)
MIC (E. coli 2Z69 (NDM-5)): 32 µg/mL (≈ 83.4 µM)
MIC (E. coli ZJ487 (NDM-1)): 32 µg/mL (≈ 83.4 µM)
MIC (E. coli E2 (NDM-9)): 53.3 ± 15.1 µg/mL (≈ 139 µM)

CN(C)[C@@H]1C(O)=C(C(N)=O)C(=O)[C@@]2(O)C(O)=C3C(=O)c4c(O)cccc4[C@@](C)(O)[C@H]3C[C@@H]12 [Tetracycline]
MIC (E. coli ZJ487 (NDM-1)): 213 ± 60.3 µg/mL (≈ 480 µM)
